Laboratory results from article PMC5267425, “Identification of small molecule modulators of HIV-1 Tat and Rev protein accumulation” (Retrovirology, 2017).

Tested on: alternative splicing of host transcripts in HeLa rtTA HIV∆Mls cells
Test: RT-PCR of host alternative splicing events (PSI), capillary electrophoresis
Format: cell-based
Protocol: To assess the effect of compounds on expression/alternative splicing of cellular RNA, two approaches were used. For both, total RNA was prepared from DMSO or compound-treated cells. In the first assay, samples were assayed by medium throughput RT-PCR to determine the inclusion levels of alternatively spliced exons and splice sites located in 73 selected events. 73 primer sets containing a fluorescently (5-FAM) labeled primer for each, were used in RT-PCR. PCR products generated were denatured in formamide and quantified using ABI Prism capillary sequencer (Life Technologies). The fragment analysis was performed on the PeakScanner software (Life Technologies) in batch mode and automated using custom scripts written in Python. The inclusion level of each exon was calculated as the amount of transcripts carrying the alternative exon relative to the total amount of all transcripts detected in the PCR reaction and results are summarized for compound-treatment in comparison to DMSO treatment. In the second assay, extracted RNA was processed using the Illumina TruSeq RNA Sample Preparation Kit (Illumina) according to the manufacturer’s instructions. The cDNA library generated was validated (passed quality control on a Bioanalyzer 1000 DNA chip (Agilent)), normalized and pooled for cluster generation. cDNA libraries were sequenced on the Illumina HiSeq 2500 (paired-end, 125 bp) with version 4 chemistry following manufacturer’s protocols. The full human genome and transcriptomic sequences were downloaded from the UCSC Genome Browser (genome.ucsc.edu) database and Ensembl (www.ensembl.org), respectively, as described by Irimia et al.. Exon annotations and genomic coordinates for alternative splicing (AS) analysis were derived from tables downloaded from the UCSC Genome Browser database. To determine gene expression (GE) or alternative splicing (AS) changes in an unbiased way, the effective number of unique mappable positions in each transcript (i.e. the effective length) was determined by aligning sequences with unique transcriptomic alignment to the human genome using Bowtie. Reads with one unique genomic alignment were then aligned against the canonical transcriptome and, for each transcript, the number of reads with one unique transcriptomic alignment were counted. The expression level of genes was quantified as corrected ‘reads per kilobase of exon model per million mapped reads’ (cRPKM), a widely used metric to estimate gene expression levels. The expression cutoff was 0.5 cRPKM, corresponding to the transcript of the gene being present if there were ≥10 reads that mapped uniquely to a single genomic locus. Approximately 19,847 Ensembl annotated protein-coding genes were compared to create a gene list of differentially expressed genes. Genes were considered differentially expressed if fold changes in cRPKM was ≥2 in compound-treated versus DMSO-treated samples.

[1] = of 70 AS events, 791 30 µM, 833 2 µM

## Cc1cc(NCc2cccnc2)n2ncc(-c3ccc(Cl)cc3)c2n1 [Compound 791, 3-(4-chlorophenyl)-5-methyl-N-(3-pyridinylmethyl)pyrazolo[1,5-a]pyrimidin-7-amine]
9147791 minus DMSO, mean n=3
  DPSI AGPAT4_1 chr6:161506598-161506735: -4.00%
  DPSI AGPAT4_1 chr6:161507269-161507439: -6.33%
  DPSI APLP2_1 chr11:129498717-129498884: 1.33%
  DPSI APP_1 chr21:26291546-26291602: 0.33%
  DPSI APP_1 chr21:26294201-26294368: -1.33%
  DPSI ATP6V0A1_1 chr17:37919833-37920004: 2.00%
  DPSI CA12_1 chr15:61406400-61406485: -0.33%
  DPSI CA12_1 chr15:61407349-61407382: 4.67%
  DPSI CASP9_1 chr1:15703693-15703840*: -1.33%
  DPSI CAST_1 chr5:96090613-96090669: 5.33%
  DPSI CLSTN1_1 chr1:9720143-9720199: -8.67%
  DPSI CLSTN1_2 chr1:9739126-9739155: -2.33%
  DPSI CRBN_1 chr3:3191846-3191950: 0.00%
  DPSI CRBN_1 chr3:3191950-3191953: 0.00%
  DPSI CTNND1_1 chr11:57318058-57318129: -4.33%
  DPSI DNM1L_1 chr12:32782066-32782143: 9.00%
  DPSI DNM1L_1 chr12:32782465-32782497: -2.00%
  DPSI DRCTNNB1A_1 chr7:22953096-22953391: -8.00%
  DPSI EIF4A2_1 chr7:187988792-187988899: 3.33%
  DPSI EIF4A2_1 chr7:187988899-187988904: 2.00%
  DPSI EIF4H_1 chr7:73242512-73242572: 0.00%
  DPSI ERC1_1 chr12:1091641-1091725: 2.67%
  DPSI EXOC7_1 chr17:71598005-71598035: -6.00%
  DPSI EXOC7_1 chr17:71598819-71598911: -4.67%
  DPSI FAM62B_1 chr7:158238233-158238295: -8.33%
  DPSI FAM104A_1 chr17:68720412-68720474: -1.00%
  DPSI FGFR1OP2_1 chr12:27004715-27004828: -11.00%
  DPSI FIP1L1_1 chr4:53975538-53975646: -4.33%
  DPSI GGCT_1 chr7:30504943-30505080: 3.33%
  DPSI GGCT_1 chr7:30506676-30506822: 3.33%
  DPSI GLK_1 chr2:39388587-39388650: -0.33%
  DPSI GM130_1 chr9:130069293-130069374: -9.67%
  DPSI GRB10_1 chr7:50651400-50651538: -0.33%
  DPSI KIF13A_1 chr6:17879324-17879428: -1.33%
  DPSI MACF1_1 chr1:39616720-39616782: 3.33%
  DPSI MACF1_5 chr1:39719179-39719289: -13.67%
  DPSI MAP3K7_1 chr6:91310992-91311072: 0.33%
  DPSI MARK3_1 chr14:103034592-103034618: -2.67%
  DPSI MARK3_1 chr14:103036246-103036290: -1.33%
  DPSI MBD1_1 chr18:46054554-46054721: -9.33%
  DPSI MBNL2_1 chr13:96807051-96807104: 0.33%
  DPSI MFF_1 chr2:227901637-227901749: 4.33%
  DPSI MRIP_1 chr17:17024646-17024708: 1.00%
  DPSI MVK_1 chr12:108501990-108502134: 11.00%
  DPSI MVK_1 chr12:108503583-108503738: 20.33%
  DPSI NAP1L1_1 chr12:74747418-74747520: 4.67%
  DPSI NAP1L1_1 chr12:74748956-74749041: 4.33%
  DPSI NPHP3_1 chr3:133898264-133898347: -1.00%
  DPSI NUMB_2 chr14:72815742-72815885: 0.67%
  DPSI NUMB_2 chr14:72820542-72820835: 6.67%
  DPSI PDCL_1 chr9:124628716-124628892: 1.33%
  DPSI POLDIP3_1 chr22:41327919-41328006: -3.67%
  DPSI POMT1_1 chr9:133368281-133368521: 5.67%
  DPSI POMT1_1 chr9:133371321-133371428: 5.67%
  DPSI RAI14_1 chr5:34849436-34849522: 3.67%
  DPSI RAN_1 chr12:129923082-129923127: -2.00%
  DPSI RPS24_1 chr10:79467729-79467746: 1.67%
  DPSI SEC24B_1 chr4:110622281-110622386: -4.00%
  DPSI SETD5_1 chr3:9453533-9453572: -1.33%
  DPSI SMN2_1 chr5_h2_hap1:475625-475826: 0.33%
  DPSI SMN2_2 chr5_h2_hap1:466192-466246: 1.67%
  DPSI SPAG9_1 chr17:46408223-46408261: -6.67%
  DPSI SRPK2_1 chr2:104553464-104553557: -1.00%
  DPSI SRPK2_1 chr2:104553930-104554023: 0.00%
  DPSI TPM1_1 chr15:61140450-61140525: 1.67%
  DPSI TPM1_1 chr15:61140965-61141040: -1.67%
  DPSI TRIM37_1 chr17:54433741-54433857: -4.67%
  DPSI ZNF827_1 chr4:146903692-146903724: 2.33%
  DPSI ZNF827_1 chr4:146905581-146905589: -1.00%
[1]
  AS events with DPSI ≤ -10%: 2
  AS events with DPSI ≥ 10%: 0
  AS events with P ≤ 0.05: 9
